# Data as given in publication PMC9317316, “Synthesis and Evaluation of Some New 4H-Pyran Derivatives as Antioxidant, Antibacterial and Anti-HCT-116 Cells of CRC, with Molecular Docking, Antiproliferative, Apoptotic and ADME Investigations” (Pharmaceuticals, 2022).
# Where “and” joins values, the source holds several entries; their conditions need not be identical. Identical values can stand only once. Like-named read-outs stand apart in the source and are kept apart here.
# How the values were obtained:
# B. cereus (ATCC 14579) [1] = assay: Antibacterial agar diffusion method (inhibition zone); type: cell-based
# Protocol: (§1) The results for the in vitro antibacterial properties of the synthesized compounds against five Gram-positive and four Gram-negative human-pathogenic strains, which were assessed by both the agar diffusion method (based on inhibition zone (IZ)) and the broth dilution bioassay (for the determination of the half-maximal inhibitory concentration (IC50) values), using ampicillin as the reference antibiotic drug, are shown in Table 2 and Table 3.
# (§2) The antibacterial activity of all synthesized compounds was evaluated against the Gram-negative strains E. coli (ATCC 25966), K. pneumonia (ATCC 700603), P. aeruginosa (ATCC 27853) and S. enteric (ATCC 43972) and against the Gram-positive strains B. cereus (ATCC 14579), B. subtilis (ATCC 6633), E. faecalis (ATCC 29122), S. aureus (ATCC 25923) and S. epidermidis (ATCC 14990), using the agar diffusion method through measuring the appearance of the inhibition zone on the surface of the top agar, as reported by Berghe and Vlietinck. Ampicillin (10 µg/well) was used as the positive reference standard. Bacterial viability was also investigated by determining the colony-forming ability (CFU) of bacteria incubated at different time intervals without or with appropriate amounts of the compound, which were mixed with 2 ×10^7 CFU/mL in sterile BHI and incubated under shaking for 60 min at 37 °C. Samples were serially diluted into sterile BHI, streaked onto media agar plates and incubated for 24 h at 37 °C. The antibacterial potency of the tested compounds was expressed as the residual number of CFUs with reference to the initial inoculums. The results presented as the half-maximal (50 %) inhibitory concentration (IC50) values are the means of three different measurements.
# B. subtilis (ATCC 6633) [2] = assay: as above; type: cell-based
# Protocol: as §1, §2
# S. aureus (ATCC 25923) [3] = assay: as above; type: cell-based
# Protocol: as §1, §2
# [4] = tested on: P. aeruginosa (ATCC 27853); assay: as above; type: cell-based
# Protocol: as §1, §2
# [5] = tested on: K. pneumonia (ATCC 700603); assay: as above; type: cell-based
# Protocol: as §1, §2
# [6] = tested on: S. epidermidis (ATCC 14990); assay: as above; type: cell-based
# Protocol: as §1, §2
# E. coli (ATCC 25966) [7] = assay: as above; type: cell-based; conditions: E. coil (ATCC 25966)
# Protocol: as §1, §2
# E. faecalis (ATCC 29122) [8] = assay: as above; type: cell-based
# Protocol: as §1, §2
# B. cereus (ATCC 14579) [9] = assay: Antibacterial viability (CFU) assay, IC50; type: cell-based; conditions: Bacillus cereus, ATCC14579
# Protocol: as §1, §2
# B. subtilis (ATCC 6633) [10] = assay: Antibacterial viability (CFU) assay, IC50; type: cell-based
# Protocol: as §1, §2
# S. aureus (ATCC 25923) [11] = assay: Antibacterial viability (CFU) assay, IC50; type: cell-based; conditions: Staphylococcus aureus, ATCC25923
# Protocol: as §1, §2
# S. enteric (ATCC 43972) [12] = assay: Antibacterial viability (CFU) assay, IC50; type: cell-based
# Protocol: as §1, §2
# [13] = tested on: P. aeruginosa (ATCC 27853); assay: Antibacterial viability (CFU) assay, IC50; type: cell-based; conditions: Pseudomonas aeruginosa, ATCC27853
# Protocol: as §1, §2
# [14] = tested on: K. pneumonia (ATCC 700603); assay: Antibacterial viability (CFU) assay, IC50; type: cell-based; conditions: Klebsiella pneumoniae, ATCC700603
# Protocol: as §1, §2
# [15] = tested on: S. epidermidis (ATCC 14990); assay: Antibacterial viability (CFU) assay, IC50; type: cell-based; conditions: Staphylococcus epidermidis, ATCC14990
# Protocol: as §1, §2
# E. coli (ATCC 25966) [16] = assay: Antibacterial viability (CFU) assay, IC50; type: cell-based; conditions: Escherichia coli, ATCC25966; E. coil (ATCC 25966)
# Protocol: as §1, §2
# E. faecalis (ATCC 29122) [17] = assay: Antibacterial viability (CFU) assay, IC50; type: cell-based; conditions: Enterococcus faecalis, ATCC29122
# Protocol: as §1, §2
# [18] = Reducing power assay (FRAC, Fe3+ to Fe2+); conditions: 0-1 mg/mL, absorbance 700 nm
# Protocol: Secondly, FRAC was determined over the concentration range of 0.0−1 mg/mL via monitoring Fe^3+−Fe^2+ transformation in the presence of the studied compounds and the reference antioxidant BHT to estimate the values of efficient concentration (EC50), expressed in mM.
# The reducing power of the studied compounds was assessed according to Oyaizu’s method. Briefly, different concentrations (ranging from 0 to 1 mg/mL) of each tested compound were first mixed with 1 mL of 0.2 M sodium phosphate buffer (pH 6.6) and 1 mL of 1% potassium ferricyanide (K3Fe(CN)6) and incubated at 50 °C for 20 min. After the addition of 1.25 mL of 20% trichloroacetic acid (TCA), the mixture was centrifuged for 10 min at 3000 rpm and the upper layer solution was then mixed with 0.5 mL of 0.1% fresh ferric chloride and an equal volume of deionized water. Finally, the absorption of the resulting mixture was measured at 700 nm using a UV spectrophotometer against distilled water as the blank, while butylated hydroxytoluene (BHT) was used as a positive control. The sample ferric reducing power capability was indicated by increased absorbance.
# [19] = DPPH radical scavenging assay; conditions: for IC50: 0.03 to 1 mg/mL, 1 h, mean ± SD, triplicate, read-out: IC50 (mM) for DPPH Scavenging Potency
# Protocol: The IC50 values for DPPH were calculated from the plot of the scavenging effect against the compound concentration.
# The compounds’ capacities to scavenge the stable radical 1,1 diphenyl-2-picrylhydrazyl (DPPH) formed in solution by donation of a hydrogen atom or an electron was investigated according to the method described by Bersuder and coworkers. Due to the fact that the initial blue/purple solution of diphenyl picrylhydrazine changes to yellow in the presence of compounds with a capacity to scavenge DPPH free radicals, this reaction is used as a measure of a compound’s ability to scavenge any free radical. Briefly, a 0.5 mL volume of DPPH ethanolic solution was mixed with an equal volume of each sample concentration (0.03 to 1 mg/mL), shaken strongly and incubated at room temperature for 1 h in darkness. The absorbance of the residual DPPH radicals was measured at 519 nm and compared to that of the control (without the tested compound). DPPH radical scavenging was calculated using the following formula: Scavenging effect (%) = (1 − Acompound/AControl) × 100, where Acompound and Acontrol are the absorbances of the tested compound and of the control, respectively. A plot of the scavenging effect (%) versus the sample concentration was also performed to determine the compound concentration providing 50% inhibition (IC50).
# HCT-116 cells = assay: Cell viability (cytotoxicity, LDH release) assay; type: cell-based; conditions: Homo sapiens, 24 h; for viability at 100 µg/mL: read-out: percent of viable cells
# Protocol: The synthesized compounds were also examined at four concentrations (10, 25, 50 and 100 µg/mL) for their cytotoxic effects on human colorectal cancer HCT-116 cells after their incubation together for 24 h.
# Cytotoxic potency was examined for a human colon cancer cell line HCT-116 (American Type Culture Collection; Manassas, VA, USA) using various amounts of each compound (10, 25, 50 and 100 µg). Samples were diluted in Dulbecco’s Modified Eagle’s Medium, consisting of 10% Fetal Bovine Serum, and added to cells grown and cultured for 24 h in a 5% CO2-humidified incubator at 37 °C. Then, the activity of lactate dehydrogenase released from damaged cells was determined in the collected supernatant aliquots using an ELISA endpoint assay (Benchmark Plus, Bio-Rad, Hercules, CA, USA). As positive and negative controls, respectively, 0.1% Triton X-100 in the assay medium and the assay medium only were used. Cell viability, shown as mean values ± SDs (n = 3), was expressed as a relative percentage of the OD values determined at 600 nm in compound-treated cells and the control.
# S. enteric (ATCC 43972) [20] = assay: Antibacterial agar diffusion method (inhibition zone); type: cell-based
# Protocol: as §1, §2
# [21] = Bacillus subtilis, ATCC6633, B. subtilis (ATCC 6633)
Structure (SMILES),IZ (mm) (B. cereus (ATCC 14579) [1]),IZ (mm) (B. subtilis (ATCC 6633) [2]),IZ (mm) (S. aureus (ATCC 25923) [3]),IZ (mm) [4],IZ (mm) [5],IZ (mm) [6],IZ (mm) (E. coli (ATCC 25966) [7]),IZ (mm) (E. faecalis (ATCC 29122) [8]),IC50 (B. cereus (ATCC 14579) [9]),IC50 (B. subtilis (ATCC 6633) [10]; [21]),IC50 (S. aureus (ATCC 25923) [11]),IC50 (S. enteric (ATCC 43972) [12]; read-out: IC50),IC50 [13],IC50 [14],IC50 [15],IC50 (E. coli (ATCC 25966) [16]),IC50 (E. faecalis (ATCC 29122) [17]),EC50 [18],IC50 [19],DPPH Radical Scavenging Effenciency (%) at 1 mg/mL [19],other results
"CCOC(=O)C1=C(C)OC(N)=C(C#N)C1c1cccc(OC)c1[N+](=O)[O-] (stereo not shown) [4b, 6-Amino-5-cyano-4-(3-methoxy-2-nitro-phenyl)-2-methyl-4H-pyran-3-carboxylic acid ethyl ester]",16.50 ± 0.71 mm,19.50 ± 0.71 mm,20.50 ± 0.71 mm,2.5 ± 0.7 mm,1.5 ± 0.7 mm,23.50 mm and 23.50 ± 0.71 mm,2.5 ± 0.71 mm,15.50 ± 0.71 mm,43.1 ± 1.98 µM,49.1 ± 1.39 µM,50.2 ± 1.39 µM,118 ± 3.34 µM,84 ± 5.01 µM,99.1 ± 2.5 µM,32.4 ± 1.39 µM,100 ± 3.9 µM,56.8 ± 1.59 µM,1200 ± 79 µM,2.56 ± 0.117 mM,23.25 ± 1.06%,viability at 100 µg/mL (HCT-116 cells): 11 to 32.5%; IC50 (HCT-116 cells; read-out: Mean IC50 (µM) of cytotoxicity): 102 ± 8.83 µM; IC50 (HCT-116 cells; read-out: Mean IC50 (µg/mL) of cytotoxicity): 36.5 ± 3.18 µg/mL; melting point: 220 to 222 °C
"CCOC(=O)C1=C(C)OC(N)=C(C#N)C1c1cccc(O)c1Cl (stereo not shown) [4g, 6-Amino-4-(2-chloro-3-hydroxy-phenyl)-5-cyano-2-methyl-4H-pyran-3-carboxylic acid ethyl ester]",29.00 mm and 29.00 ± 1.41 mm,28.00 mm and 28.00 ± 1.41 mm,27.50 mm and 27.50 ± 0.71 mm,13.5 ± 0.7 mm,11.5 ± 0.7 mm,29.75 mm and 29.75 ± 0.35 mm,11.0 ± 1.41 mm,24.50 mm and 24.50 ± 0.71 mm,29.4 ± 1.49 µM,25.7 ± 1.7 µM,27.8 ± 1.25 µM,53 ± 3.29 µM,54.1 ± 4.48 µM,61.8 ± 2.99 µM,30.3 ± 1.49 µM,61.8 ± 5.38 µM,31.8 ± 1.49 µM,72 ± 4 µM,0.329 ± 0.042 mM,90.50% and 90.50 ± 2.12%,IC50 (S. enteric (ATCC 43972) [12]): 54.1 µM; viability at 100 µg/mL (HCT-116 cells): 86%; melting point: 212 to 213 °C
"COc1ccc(C2C(C#N)=C(N)OC(C)=C2C(=O)OCc2ccccc2)cc1 (stereo not shown) [4j, 6-Amino-5-cyano-4-(4-methoxy-phenyl)-2-methyl-4H-pyran-3-carboxylic acid benzyl ester]",24.50 mm and 24.50 ± 0.71 mm,21.50 mm and 21.50 ± 0.71 mm,25.25 mm and 25.25 ± 1.06 mm,14.5 ± 0.7 mm,12.0 ± 1.4 mm,26.65 mm and 26.65 ± 0.92 mm,10.5 ± 0.71 mm,23.20 mm and 23.20 ± 0.57 mm,27.6 ± 1.51 µM,23.6 to 36.8 µM,33.3 ± 1.7 µM,51.8 ± 2.92 µM,49.7 ± 4.78 µM,48.4 ± 3.99 µM,33.3 ± 1.7 µM,57.1 ± 0.8 µM,28.2 ± 1.51 µM,74 ± 4 µM,0.194 mM,88.00% and 88.00 ± 1.41%,IC50 (B. subtilis (ATCC 6633) [10]; B. subtilis (ATCC 6633)): 23.6 ± 0.37 µM; IC50 (S. enteric (ATCC 43972) [12]): 49.7 µM; viability at 100 µg/mL (HCT-116 cells): 94%; melting point: 170 to 172 °C
"CC1(C)S[C@@H]2[C@H](NC(=O)[C@H](N)c3ccccc3)C(=O)N2[C@H]1C(=O)O [Ampicillin, reference compound]",23.50 ± 0.71 mm,25.50 ± 0.71 mm,21.50 ± 0.71 mm,21.5 ± 0.7 mm,21.0 ± 1.4 mm,22.50 ± 0.71 mm,23.5 ± 0.71 mm,24.50 ± 0.71 mm,25.8 ± 0.57 µM,37.2 ± 1.43 µM,38.6 ± 2 µM,14.9 ± 0.34 µM,41.5 ± 1.72 µM,32.9 ± 2.29 µM,50.1 ± 3.43 µM,58 ± 4.87 µM,36.5 ± 3.03 µM,,,,IZ (mm) (B. cereus (ATCC 14579) [1]; listed as ampicillin): 23.50 mm; IZ (mm) (B. subtilis (ATCC 6633) [2]; listed as ampicillin): 25.50 mm; IZ (mm) (S. aureus (ATCC 25923) [3]; listed as ampicillin): 21.50 mm; IZ (mm) (S. enteric (ATCC 43972) [20]): 19.5 ± 0.7 mm; IZ (mm) ([6]; listed as ampicillin): 22.50 mm; IZ (mm) (E. faecalis (ATCC 29122) [8]; listed as ampicillin): 24.50 mm
"Cc1cc(C(C)(C)C)c(O)c(C(C)(C)C)c1 [BHT, butylated hydroxytoluene, reference compound]",,,,,,,,,,,,,,,,,,89 ± 3 µM,0.245 ± 0.027 mM,95.30% and 95.30 ± 0.42%,
